In patent publication US20030232902A1, “Ink composition and ink - jet recording method” (FUJI PHOTO FILM CO., LTD., priority 2002, published 2003):

Legend:
[1] = Solubility of auxiliary solvent in water at 25° C.; details: for Auxiliary solvent Water solubility: Table 1; for Solubility of auxiliary solvent in water at 25° C.: in 100 g of water at 25° C.
[2] = Water solubility of high-boiling point organic solvent; type: physicochemical; details: 25° C.
Source text: Thus, the water solubility is preferably 4 g or below, more preferably 3 g or below, and still more preferably 2 g or below and most preferably 1 g or below.

[3] = Specific gravity of high-boiling point organic solvent; type: physicochemical

| Molecule | Auxiliary solvent Water solubility [1] | Solubility of auxiliary solvent in water at 25° C. [1] | High-boiling point organic solvent Water Solubility [2] | High-boiling point organic solvent Specific Gravity [3] |
| --- | --- | --- | --- | --- |
| CCOC(C)=O [AS-1, ethyl acetate] | 8 g | 8 g |  |  |
| CCCOC(C)=O [AS-2, propyl acetate] | 2 g | 2 g |  |  |
| (ClCH2CHCHO)3—P═O [SPX-2] |  |  | 0.9 g | 1.51 |
| CCC(CC)COC(C)=O [AS-3, 2-ethylbutyl acetate] |  | <1 g |  |  |
| CCCCOCCOCCOC(C)=O [AS-10, 2-(2-n-butoxyethoxy)ethyl acetate] |  | 2 g |  |  |
| CCOC(=O)CC [AS-7, ethyl propionate] |  | 2 g |  |  |
| 2-ethylene acetate [AS-4] |  | 20 g |  |  |
| CCCCCOP(=O)(OCCCCC)OCCCCC [SPX-4, [(n)C5H11O]3—P═O] |  |  | 4.5 g | 0.94 |
| CCCCOC(C)=O [AS-6, butyl acetate] |  | 2 g |  |  |
| O=P(OCCCl)(OCCCl)OCCCl [SPX-3, (ClCH2CH2O)3—P═O] |  |  | 4.64 g | 1.41 |
| CCOCCOC(C)=O [AS-5, 2-ethoxyethyl acetate] |  | 25 g |  |  |
| O=C1CCCCC1 [AS-11, cyclohexanone] |  | 15 g |  |  |
